1 molecule from patent publication US20260248799A1, “COMBINATIONS OF RETINALDEHYDE DEHYDROGENASE 1 (RALDH1) INHIBITORS AND IMMUNOSTIMULATORS AND METHODS USING SAME” (The Trustees of the University of Pennsylvania, priority 2023, published 2026) can be followed below.

For orientation: Cmax means the maximum level reached in the sampled fluid or tissue.

“Also recorded” adds a separate entry of the source.

Data set [1] concerns SNU398 cells. In words: RT-qPCR of Raldh1, Raldh2 and Raldh3 transcripts in SNU398 cells. Format: cell-based, human. Particulars: SNU398, 24 hours. The method, then:
FIG. 21A: Transcript levels (RT-qPCR) of Raldh1, Raldh2 and Raldh3 in SNU398 cells treated with different concentrations of C86 or C91 for 24 hours. FIG. 21B: Homology modeling identifies differences in amino acid residues between human and murine RALDH1 at sites predicted to bind RALDH1-INH. FIG. 21C: SNU398 cells were treated with various concentrations of C86 or C91 for 24 hours. Cell viability was measured by flow cytometry (FCM) with 7-AAD staining (Y-axis indicates percentage of 7-AAD negative cells).
Total RNA from mouse tissue samples and in vitro cultured cells was isolated using GenElute Mammalian Total RNA Miniprep Kit (Sigma) following the manufacturer's protocol. Total RNA from human FFPE samples was isolated by using Quick-RNA FFPE Miniprep Kit (Zymo Research) using the manufacturer's protocol. 1000 ng of RNA was used for reverse transcription using High Capacity RNA to cDNA Kit (Life Technologies). The cDNA product was 10× diluted. 2.5 μL of this cDNA was used for qPCR for each sample. Three or more replicates were used for each reaction. […] Expression fold was calculated as 2^−(CT target gene−CT housekeeping gene). Quantitative PCRs were run on a Viia 7 real time PCR system (ThermoFisher). The following target and housekeeping genes were measured using the commercially available TaqMan probes (ThermoFisher): […]
(In qPCR the cycle at which signal appears reflects the starting amount.)

A further data set has as its system SNU398 human HCC cells. In words: AldeRed (Aldefluor) assay in SNU398 cells. Format: cell-based. The method, then: (§1) The AldeRed assay (EMD Millipore) was performed according to manufacturer's instructions to identify cells with ALDH activity. In brief, single-cell suspensions of Huh7, Huh1, SNU449, SNU398, HEP3B, PLC, Hepa 1-6, Hep55, and AL458A cultured cells or single-cell suspension generated from enzymatic digestion of tumors generated from transplantation of these cells in mice (as indicated in figure legends) were incubated with a fluorescent and non-toxic ALDH substrate (AldeRed 588-A); the fluorescent product accumulates in cells proportional to their ALDH activity. The amount of fluorescence produced is measured by flow cytometry. The ALDH inhibitor diethylaminobenzaldehyde (DEAB, provided with the AldeRed assay kit) was used as a negative control for background fluorescence assessment.
The Aldefluor assay has been used to identify and isolate cells with high ALDH activities. This assay is based on the principle that ALDH can convert the ALDH-substrate, Bodipy-aminoacetaldehyde (BAAA) into Bodipy-aminoacetate (BAA) which is retained inside the cells. BAAA is uncharged and can diffuse freely into intact viable cells, however BAA cannot cross the membrane due to its net negative charge, which makes remain in the cells and the assay buffer prevents efflux of the BAA from the cells. Therefore, the amount of BAA fluorescence in cells is proportional to ALDH activity and can be measured using a flow cytometer. A specific inhibitor of ALDH, diethylaminobenzaldehyde (DEAB), is used for background fluorescence control.

For data set [2], the system named is murine HCC cell line (Hepa1-6). In words: AldeRed assay in Hepa1-6 cells. Format: cell-based, mouse. Particulars: murine HCC cell line Hepa1-6, 24 hours. The method, then: Cultures of tumor cells or primary monocyte-derived cells were treated with C86, C91, C99, BMS 493 (Tocris, 3509) or Win 18446 (Tocris, 4736) at a time and concentration indicated in corresponding figure legends.
as §1

Data set [3] deals with SNU398 cells. In words: In vitro proliferation and viability of human HCC cell lines. The data set is classed as cell-based. The method, then:
FIG. 20D: LC-MS for ATRA on Hepa1-6 (mouse HCC cell line) or SNU398 (human HCC cell line). […] Two independent experiments were performed with at least three replicates per experimental group. Unpaired t test, two-tailed. *, P<0.05; **, P<0.01; ***, P<0.001. […] Cell proliferation was measured by counting live cell numbers at each time point. […] Cell proliferation was measured by counting live cell numbers at each time point.
Cell viability was measured by flow cytometry (FCM) with 7-AAD staining (Y-axis indicates percentage of 7-AAD negative cells).
1×10^4~2×10^5 of Huh7, Huh1, Hepa 1-6, and Hep55 tumor cells were plated in triplicate in 48-well plates or 6-well plates. Viable cell numbers were counted every day for three to four days.

The nature of data set [4]: Pharmacokinetics IV and PO in CD-1 mice, plasma. As to conditions: mouse plasma. Format: in vivo. The text has this:
The PK studies were done at NIH or a commercial CRO—Pharmacon using their in-house standard protocol. […] For C99, IV and PO, performed at NIH using CD-1 mice; formulation: 20% HPbCD in saline.

For data set [5] the following is noted: mouse, in vivo.
Protocol: Male CD1 or C57BL/6J mice between 6 and 8 weeks old and weighing approximately 20 to 30 grams were dosed with compound 86, compound 91, and compound 99 at 2 mg/kg (IV), 10 mg/kg (PO), and 10 or 30 mg/kg (IP). The compounds were formulated using a 20% hydroxypropyl-beta-cyclodextrin (HPbCD) solution in saline, was made on the day of dosing or directly prior to dosing. Each treatment group consisted of three mice, and plasma was collected at 5 minutes, 15 minutes, 30 minutes, 1 hour, 2 hours, 4 hours, 8 hours, 12 hours, and 24 hours post-dose for IV administration and at 15 minutes, 30 minutes, 1 hour, 2 hours, 4 hours, 8 hours, 12 hours, and 24 hours post-dose for PO administration. Approximately 0.025 mL of blood was collected from the dorsal metatarsal vein at each time point. […] Plasma samples were then stored in polypropylene tubes, quickly frozen, and kept at −75° C. until analyzed by LC/MS/MS. The following pharmacokinetic parameters were measured: Terminal half-life (T½), Concentration at immediately after injection (C0), Maximum concentration (Cmax), Time to reach max concentration (Tmax), Clearance (CL), Volume of distribution (Vd), Area under the curve (AUClast), and bioavailability (% F). Animals were also monitored during the in-life phase by once daily cage side observations; any adverse clinical signs were noted as part of the PK report.
Setting [6] is: intravenous administration, 2 mg/kg.

For `CS(=O)(=O)N1CCN(C(=O)c2cnc3ccc(F)cc3c2-c2ccc(C3(C#N)CC3)cc2)CC1` [Compound C-91, 1-(4-(6-fluoro-3-(4-(methylsulfonyl)piperazine-1-carbonyl)quinolin-4-yl)phenyl)cyclopropane-1-carbonitrile], the “transcription of other RALDH isozymes” value in the data set on SNU398 cells [1] was “did not lead to compensatory increases in transcription”. In addition, the “RALDH activity, Aldered assay, in HCC cells” value in the data set on SNU398 human HCC cells (FIGS. 7-8) is “significantly reduced RALDH activity”. Further, in the data set on SNU398 human HCC cells (SNU398 cells in vitro, 100 nM, DMSO control), the “RALDH activity as detected by Aldered (Aldefluor) assay” value is recorded as “abrogated”. The AldeRed fluorescence entry in data set [2] was “no change in AldeRed fluorescence; also recorded: failed to reduce AldeRed fluorescence”. In the data set with SNU398 cells [3] (SNU398, 1, 10, 100 and 1000 nM), the “HCC cell growth in vitro” value is on record as “did not inhibit HCC cell growth in vitro”. Besides, in the data set with SNU398 cells [3] (live cell counts over 3 days, 7-AAD staining 24 hours), the “cell death / cell viability in human HCC cell lines” value was “not due to increased cell death or reduced cell viability”. Further, in data set [4] (setting [6]), the “AUC0-∞” value came out at 1830 ng·h/mL, the Cmax was determined as 1997 ng/mL and the Vss stood at 1.4 L/kg. Also, in data set [4] (oral administration, 10 mg/kg), the “AUC0-∞” value turned out to be 6980 ng·h/mL, the Cmax came out at 1530 ng/mL and the F is listed as 76%. In addition, the signs of toxicity entry in data set [5] is listed as “no signs of toxicity have been observed”.
